The text below walks through data of patent US10322112B2, “Compound combinations for attenuation of bacterial virulence” (priority 2016, dated 2019).

Test [1] deals with T1, LasR (Pseudomonas aeruginosa, UniProt P25084).
T1 construct: expressed in transfected cells; host or cells: E. coli JLD271
Put plainly: E. coli reporter gene primary antagonism assay, LasR. Type of test: cell-based. Conditions: compounds at 100 mm against 2 nm OdDHL; E. coli beta-galactosidase reporter strain JLD271/pJN105L/pSC11; untreated culture = 100%; negative values indicate receptor agonism; error ±10%. As to the method: Percent agonism of a given non-native inducer in a given bacterium and QS system receptor is measured with resepct to the maximum level of agonism (activation) by the native ligand of that receptor in the given bacterium. Percent antagonism is measured in competitive assays. The QS system of interest is activated to 100% with added or endogenous native ligand and the % antagonism of the non-native inducer is assessed with respect to 100% activation by the native inducer. The native ligand which induces LasR is OdDHL, which induces RhlR is BHL and which induces PqsR is PQS. As described herein and in cited references, assays for assessment of % agonism or % atangonism may be performed in E. coli systems (heterologous) or in the bacterium of interest, e.g., Pseudomonas. Dependent upon the assay system employed native ligand may be endogenously present or it may be exogenously supplied to the assay system. […] In antagonism assays using the native strains with functional QS systems, e.g., those of P. aeruginosa, endogenous native ligand is made in the system, so no native ligand is added. In native strains having one or more non-functional QS systems (mutant strains), e.g., P. aeruginosa mutants with non-functional QS systems, native ligand is added at about 10-100× the EC50 of the native ligand. In the agonism assay, native ligand is added as a control. Details of the assays are provided herein in Example 9 and in references cited in Example 9.

In test [2] the test system is P. aeruginosa (PAO1). Put plainly: Pyocyanin assay. Type of test: cell-based, Pseudomonas aeruginosa. Conditions: for pyocyanin production, single compound screens: MOPS Glutamate and Glucose media, complete or iron/phosphate depleted, 17 h, 100 μM (compounds 1, 2, 3), 25 μM (compound 4), relative to DMSO. How it is done:
A. Pyocyanin Assay Protocol. The amount of pyocyanin in P. aeruginosa culture supernatants was measured following a reported protocol (O'Loughlin et al., 2013) with modifications. A 10 mL overnight culture of P. aeruginosa PAO1 was grown for 16 h. DMSO stock solutions of test compounds (20 mM) were prepared, and 10 μL or 5 μL aliquots were added to sterile 15 mL borosilicate glass test tubes. An inoculating culture was prepared by diluting the overnight culture 1:100 into freshly prepared assay medium (see above), and 2 mL aliquots of this subculture were added to each test tube (0.5% DMSO, final). The cultures were grown for 17 h, and the final cell density measured by reading OD600. Relative pyocyanin levels were measured by first pelleting 1.5 mL of well-mixed culture at 4,000 g for 10 min, transferring 200 μL of the resulting supernatant to a clear, plastic 96-well microtiter plate, and reading absorbance at 695 nm. Media background absorbance (measured from a “no bacteria” control) was subtracted, the resulting values growth normalized by dividing by the final OD600378, and the data plotted relative to a DMSO-treated positive control. B. Rhamnolipid Assay Protocol. Rhamnolipid was quantified following a reported protocol (Koch et al., 1991) with modifications. Assay cultures were prepared and grown in an identical manner to the pyocyanin assay above. Aliquots of the final culture supernatant (1 mL) were transferred to 1 dram glass vials and extracted twice with 1 mL diethyl ether. The pooled organic fractions were evaporated to dryness, and the resulting residue reconstituted in 200 μL de-ionized water. In a 1.7 mL plastic centrifuge tube, 50 μL of this extract was diluted into 450 μL of a solution of 0.19% (w/v) orcinol in 50% (v/v) concentrated H2SO4 (or 20 μL extract into 480 μL orcinol solution for cultures grown in MOPS Glucose medium). The tubes were vortexed thoroughly to mix and incubated in an 80° C. heating block for 30 min. After briefly cooling to room temperature, 200 μL of the resulting yellow to yellow-orange solution was transferred to a clear 96-well microtiter plate, and the absorbance at 421 nm measured. Media background absorbance (measured from a “no bacteria” control) was subtracted, the resulting values growth normalized by dividing by the final OD600, and the data plotted relative to a DMSO-treated positive control. C. Elastase B Assay Protocol. The amount of elastase B in P. aeruginosa culture supernatants was measured following a reported protocol (Geske et al., 2007) with modifications. Assay cultures were prepared and grown in an identical manner to the pyocyanin assay above. Aliquots of the final culture supernatant (50 μL) were added to the wells of a clear, plastic 96-well plate. To each well, 150 μL of 0.5% (w/v) elastin-congo red conjugate (Elastin Products Co.) in Tris buffer (10 mM Tris-HCl, 1 mM CaCl2, pH 7.2) was added. The plate was sealed with a polypropylene storage mat (Costar 3080) and incubated in a 37° C. shaking incubator (200 rpm) attached to a Labquake rotator for 12 h (for experiments in SCFM2) or 24 h (for experiments in MOPS medium). To quantify elastase B activity, the undigested elastin was pelleted by centrifugation of the assay plate at 1,500 g for 10 min, after which 100 μL of the supernatant was transferred to a new, clear 96-well plate, and the absorbance at 490 nm measured. Media background absorbance (measured from a “no bacteria” control) was subtracted, the resulting values growth normalized by dividing by the final OD600, and the data plotted relative to a DMSO-treated positive control.

The test system of test [3] is P. aeruginosa (PAO1). In words: Rhamnolipid assay. The format is cell-based, Pseudomonas aeruginosa. To be noted: MOPS Glutamate and Glucose media, complete or iron/phosphate depleted, 17 h, 100 μM (compounds 1, 2, 3), 25 μM (compound 4), relative to DMSO. How it is done:
(§1) A. Pyocyanin Assay Protocol. The amount of pyocyanin in P. aeruginosa culture supernatants was measured following a reported protocol (O'Loughlin et al., 2013) with modifications. A 10 mL overnight culture of P. aeruginosa PAO1 was grown for 16 h. DMSO stock solutions of test compounds (20 mM) were prepared, and 10 μL or 5 μL aliquots were added to sterile 15 mL borosilicate glass test tubes. An inoculating culture was prepared by diluting the overnight culture 1:100 into freshly prepared assay medium (see above), and 2 mL aliquots of this subculture were added to each test tube (0.5% DMSO, final). The cultures were grown for 17 h, and the final cell density measured by reading OD600. Relative pyocyanin levels were measured by first pelleting 1.5 mL of well-mixed culture at 4,000 g for 10 min, transferring 200 μL of the resulting supernatant to a clear, plastic 96-well microtiter plate, and reading absorbance at 695 nm. Media background absorbance (measured from a “no bacteria” control) was subtracted, the resulting values growth normalized by dividing by the final OD600378, and the data plotted relative to a DMSO-treated positive control. B. Rhamnolipid Assay Protocol. Rhamnolipid was quantified following a reported protocol (Koch et al., 1991) with modifications. Assay cultures were prepared and grown in an identical manner to the pyocyanin assay above. Aliquots of the final culture supernatant (1 mL) were transferred to 1 dram glass vials and extracted twice with 1 mL diethyl ether. The pooled organic fractions were evaporated to dryness, and the resulting residue reconstituted in 200 μL de-ionized water. […] After briefly cooling to room temperature, 200 μL of the resulting yellow to yellow-orange solution was transferred to a clear 96-well microtiter plate, and the absorbance at 421 nm measured. Media background absorbance (measured from a “no bacteria” control) was subtracted, the resulting values growth normalized by dividing by the final OD600, and the data plotted relative to a DMSO-treated positive control. […] The amount of elastase B in P. aeruginosa culture supernatants was measured following a reported protocol (Geske et al., 2007) with modifications. […] To quantify elastase B activity, the undigested elastin was pelleted by centrifugation of the assay plate at 1,500 g for 10 min, after which 100 μL of the supernatant was transferred to a new, clear 96-well plate, and the absorbance at 490 nm measured. Media background absorbance (measured from a “no bacteria” control) was subtracted, the resulting values growth normalized by dividing by the final OD600, and the data plotted relative to a DMSO-treated positive control.

Test [4] deals with P. aeruginosa (PAO1). Put plainly: Elastase B assay. Type of test: cell-based, Pseudomonas aeruginosa. To be noted: MOPS Glutamate and Glucose media, complete or iron/phosphate depleted, 17 h, 100 μM (compounds 1, 2, 3), relative to DMSO. How it is done: as §1
Test [5] addresses QscR (Pseudomonas aeruginosa, UniProt G3XD77). Type of test: cell-based. More on the design: expressed in transfected cells; host or cells: E. coli JLD271. Conditions: compounds at 100 mm against 15 nm OdDHL; E. coli reporter strain JLD271/pJN105Q/pSC11-Q; untreated culture = 100%; error ±10%. The text has this: Construction of pSC11-Q: A 348 bp fragment spanning the upstream region of PA1897 (¢304 to +43 relative to the PA1897 translationalstart codon) was amplified from plasmid pJL101*by using primers 5′-GAATAT GGATCC TCTCTC CGCAGA TACCTG-3′ (BamHI site underlined) SEQ ID NO:5 and 5′-GCTATT GAATTC TGAAGA TGAATA GCGCCAC-3′ (EcoRI site underlined) SEQ ID NO:6. The PCR-generated fragment was digested with EcoRI and BamHI and subsequently ligated into EcoRI/BamHI-digested pPROBE-KT to generate pPROBE-KQ2. […] CGCC-3′ (BamHI site underlined) SEQ ID NO:8. The PCR-generated fragment was digested with SalI and BamHI and subsequently ligated into SalI/BamHI-digested pSC11 to generate pSC11-Q.
E. coli reporter gene assays: Primary assays for RhlR, LasR, and QscR activity in E. coli JLD271 reporter (beta-galactosidase) strains were performed as reported by Welsh et al. 2015, with the following modifications:
For all primary and dose-response antagonism assays, the concentration of native ligand utilized was approximately equal to its EC50 value in each bacterial reporter strain. For RhlR, LasR, and QscR primary antagonism assays, synthetic ligand (100 mm) was screened against BHL (10 mm), OdDHL (2 nm), and OdDHL (15 nm), respectively. For RhlR, LasR, and QscR primary agonism assays, synthetic compound (100 mm) was screened alongside and compared to the natural ligand (900 mm BHL or 100 mm OdDHL) for the receptor. As part of the beta-galactosidase assay protocol, plates to which CPRG substrate had been added were incubated at either 25° C. (LasR assay) or 30° C. (RhlR and QscR assays) until positive control wells developed a deep red color (10 min for LasR, 30 min for RhlR, and 60 min for QscR). Dose-response reporter gene assays were performed according to these protocols by using varying concentrations of compound.

Test [6] has as its system P. aeruginosa (PAO1). Put plainly: P. aeruginosa growth curves. To be noted: MOPS Glutamate, 100 microM compound 1. Type of test: cell-based, Pseudomonas aeruginosa. How it is done:
FIGS. 2A-2D are wild-type P. aeruginosa growth curves in the presence of test compounds in various media. Related to FIGS. 3, 6A and 6B, 7A and 7B, and 12. (FIG. 2A) Growth curves in complete MOPS/Glutamate. (FIG. 2B) Growth curves in complete MOPS/Glucose. […] (FIG. 2D) Growth curves in SCFM2. P. aeruginosa (PAO1) was grown in a manner identical to the pyocyanin assay (see Experimental Procedures). At each time point, growth was measured by either reading OD600 (for MOPS media) or by serially diluting culture aliquots, plating on LB agar, and counting CFUs after overnight incubation at 37° C. (for SCFM2). Compound concentrations are 100 microM for compounds 1, 2, and 3 and 25 microM for compound 4 in all experiments unless noted otherwise. Error bars represent the standard error of at least two biological replicates (n≥2). BHL=N-butyryl L-homoserine lactone (Cayman Chemicals).
B. Bacterial Strains and Growth Conditions. Protocols for construction of genetic knockout strains are described below in Example 2. All reagents for bacterial culture were purchased from Sigma-Aldrich unless indicated otherwise. Bacteria were routinely cultured in Luria-Bertani broth (LB) at 37° C. with shaking at 200 rpm. Freezer stocks of bacterial strains were maintained at −80° C. in 1:1 LB:glycerol. Bacterial growth was routinely assessed by measuring the culture cell density according to absorbance at 600 nm (OD600341). Cell growth in simulated cystic fibrosis sputum medium (SCFM2) was determined by serially diluting assay cultures, plating on LB agar, and counting the number of colony forming units (CFU) appearing after overnight incubation at 37° C.

Entries after “also recorded” stand apart in the source; their conditions may differ.

T1 sequence (P25084 whole entry): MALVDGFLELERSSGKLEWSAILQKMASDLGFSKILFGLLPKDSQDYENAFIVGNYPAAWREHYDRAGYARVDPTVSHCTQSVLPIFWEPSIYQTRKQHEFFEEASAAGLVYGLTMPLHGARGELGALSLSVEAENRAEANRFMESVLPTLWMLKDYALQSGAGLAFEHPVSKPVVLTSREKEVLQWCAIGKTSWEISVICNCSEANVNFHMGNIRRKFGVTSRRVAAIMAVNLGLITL
Sequence of QscR (G3XD77 entry or part of it): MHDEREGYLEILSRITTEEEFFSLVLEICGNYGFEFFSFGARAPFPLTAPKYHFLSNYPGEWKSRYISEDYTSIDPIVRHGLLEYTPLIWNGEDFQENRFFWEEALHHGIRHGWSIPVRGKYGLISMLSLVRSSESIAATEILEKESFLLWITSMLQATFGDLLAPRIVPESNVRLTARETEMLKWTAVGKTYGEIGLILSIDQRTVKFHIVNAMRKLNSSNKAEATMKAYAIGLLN

For the molecule `O=C(COc1ccc(I)cc1)N[C@H]1CCOC1=O` [compound 2], in test [1], the “Inhibition [%] LasR” value was −9%. Moreover, the “pyocyanin production, single compound screens” value in test [2] is “strong pyocyanin inhibition, unless phosphate concentrations were low”. For the same molecule, the “pyocyanin production in SCFM2, single compound” value in test [2] (SCFM2, 17 h, 100 μM compound 2 alone) was “did not attenuate pyocyanin”. The “rhamnolipid production, single compound screens” value in test [3] is “little to no effect”. In test [4], the “elastase B production, single compound screens” value is listed as “little to no effect”. In addition, the “Inhibition [%] QsCR” value in test [5] is on record as 18%.

Take `CCCCCCCCCC(=O)CC(=O)Nc1ccccc1` [compound 1]: the “pyocyanin production, single compound screens” value in test [2] is “strong pyocyanin inhibition, unless phosphate concentrations were low”. Besides, the “pyocyanin production over time, low phosphate medium” value in test [2] (MOPS Glutamate with phosphate diluted 10-fold, 100 microM compound 1) is listed as “does not attenuate pyocyanin production; also recorded: little to no effect”. Also, the “pyocyanin production over time, complete medium” value in test [2] (complete MOPS Glutamate, 100 microM compound 1) is reported as “eliminated pyocyanin synthesis”. Besides, in test [3], the “rhamnolipid production, single compound screens” value is “little to no effect”. The “elastase B production, single compound screens” value in test [4] is recorded as “little to no effect”. Also, the “effect on cell growth, compound 1” value in test [6] is “no effect on cell growth”.
